System: Fibrosis
Assay: Area occupied by fibrosis in hematoxylin/eosin sections of sodium hypochlorite aerosol-treated rabbits
Type: in vivo, New Zealand albino rabbits
Description: It is known that the factors TGF-α, TGF-β 1, TGF-β 2, TGF-β 3, SPARC, MMP-3; MMP-7, MMP-9, MMP-11, MMP-13 and MMP-14, TGF-β, NF-kB, EGF, MMP-9, VEGF and TNF-α which are produced by lung cells (pneumocytes, fibroblasts and vascular endothelial cells) and inflammatory cells (macrophages, lymphocytes and polymorphonuclear leukocytes) are involved in the pathophysiology and development of said respiratory tract diseases. […] Herein, 27 New Zealand albino rabbits (New Zealand White Rabbit) with an initial average weight about 3 kg were used in this example. All subjects were administered an aerosol of a solution consisting of a mixture of water and sodium hypochlorite (35 g sodium hypochlorite per liter of water) at a rate of 5 mL of said solution by inhalation three times a day for 7 days (days 1 to 7 of experimentation). Subsequently, from days 3 to 7, a group of 3 rabbits (Group 1) was administered an oral dose of 10 mg/kg body weight per day, another group of 3 rabbits (Group 2) was administered an oral dose of 40 mg/kg body weight per day, a third group (Group 3) was administered an oral dose of 80 mg/kg body weight per day and a fourth group (Group 4) was administered an oral dose of 100 mg/kg body weight per day. […] This mixture was administered as an aerosol by inhalation, also from days 3 to 7, to a group of 3 rabbits (group 5) at a dose of 0.05 mg/kg body weight per day, to another group of three rabbits (Group 6) at a dose of 0.1 mg/kg body weight per day, to another group of three rabbits (Group 7) at a dose of 0.2 mg/kg body weight per day and to another group of three rabbits (Group 8) at a dose of 0.4 mg/kg body weight per day. A placebo consisting only of olive oil was administered from days 3 to 7 to a control group of 3 rabbits (placebo group). In parallel, 3 rabbits were kept under identical conditions but were not administered any treatment nor the aforementioned sodium hypochlorite solution (control group). […] On day 7 of the experiment all animals were euthanized and necropsied. […] Samples were taken at the peripheral level of the lung parenchyma, just below the pleural surface. Tissue samples were also taken from the nasal cavity, pharynx, larynx and bronchi. Immunohistochemistry studies were performed for all samples to evaluate the levels of the markers TGF-α, TGF-β 1, TGF-β 2, TGF-β 3 SPARC, MMP-3; MMP-7, MMP-9, MMP-11, MMP-14, TGF-β, TNF-α and VEGF. The samples were then allowed to cool to room temperature over 10 minutes. Endogenous peroxidase activity was blocked by treatment with 3% hydrogen peroxide over 30 min at room temperature. […] In order to verify the expression of NK1 receptors, the cell samples were incubated in the presence of anti-NK1 antibodies ([…], Sigma-Aldrich) diluted 1:1000 at 4° C. overnight. After this time they were washed in 0.05M Tris buffer at room temperature. Subsequently, Envision System-HRP (Dako) reagents were added for 30 min at room temperature. Once this time had expired, the samples were again washed with 0.05 M Tris buffer, and immunoreactivity was visualized by light microscopy with a chromogenic solution with 3,3'-diaminobenzidine (DAB+; Dako, USA). In order to differentiate the cell nuclei, these were lightly stained with haematoxylin. Samples that were not incubated with the primary antibody, but wherein this was replaced by a non-immune serum were used as negative controls. In order to evaluate markers in these immunohistochemical assays, specific primary antibodies were used against them at a concentration 1:1000, as detailed in Table 12. Furthermore, for each of the sampled sections were placed on slides and stained with haematoxylin-eosin before subsequently being deparaffinised by immersion in xylene and then rehydrated through immersion in a series of solutions containing decreasing concentrations of ethanol and, finally, immersing them in water, eosin (20 seconds) and hematoxylin (40 seconds). All experiments were performed in sextuplicate. […]

SMILES: C[C@@H](OC1OCCN(Cc2nc(=O)[nH][nH]2)C1c1ccc(F)cc1)c1cc(C(F)(F)F)cc(C(F)(F)F)c1 (stereo in doubt) [Aprepitant, 5-([(2R,3S)-2-((R)-1-[3,5-bis(trifluoromethyl)phenyl]ethoxy)-3-(4-fluorophenyl)morpholino]methyl)-1H-1,2,4-triazol-3(2H)-one]
- Percent increase in Fibrosis with respect to the control group (bronchial tissue, Group 1, oral 10 mg/kg per day): 2,500.10%
- Percent increase in Fibrosis with respect to the control group (bronchial tissue, Group 2, oral 40 mg/kg per day): 2,000.00%
- Percent increase in Fibrosis with respect to the control group (bronchial tissue, Group 3, oral 80 mg/kg per day): 1,500.00%
- Percent increase in Fibrosis with respect to the control group (bronchial tissue, Group 4, oral 100 mg/kg per day): 1,000.00%
- % Med G5/C: percent increase in Fibrosis with respect to the control group (bronchial tissue, Group 5): 2,000.00%
- % Med G6/C: percent increase in Fibrosis with respect to the control group (bronchial tissue, Group 6): 1,000.00%
- % Med G7/C: percent increase in Fibrosis with respect to the control group (bronchial tissue, Group 7): 500.00%
- % Med G8/C: percent increase in Fibrosis with respect to the control group (bronchial tissue, Group 8): 100.50%
- Percent increase in Fibrosis with respect to the control group (laryngeal tissue, Group 1, oral 10 mg/kg per day): 250.50%
- Percent increase in Fibrosis with respect to the control group (laryngeal tissue, Group 2, oral 40 mg/kg per day): 225.70%
- Percent increase in Fibrosis with respect to the control group (laryngeal tissue, Group 3, oral 80 mg/kg per day): 200.57%
- Percent increase in Fibrosis with respect to the control group (laryngeal tissue, Group 4, oral 100 mg/kg per day): 150.70%
- Percent increase in Fibrosis with respect to the control group (laryngeal tissue, Group 5, inhalation 0.05 mg/kg per day): 375.50%
- Percent increase in Fibrosis with respect to the control group (laryngeal tissue, Group 6, inhalation 0.1 mg/kg per day): 275.45%
- Percent increase in Fibrosis with respect to the control group (laryngeal tissue, Group 7, inhalation 0.2 mg/kg per day): 200.60%
- Percent increase in Fibrosis with respect to the control group (laryngeal tissue, Group 8, inhalation 0.4 mg/kg per day): 125.40%
- Percent increase in Fibrosis with respect to the control group (lung tissue, Group 1, oral 10 mg/kg per day): 1,272.22%
- Percent increase in Fibrosis with respect to the control group (lung tissue, Group 2, oral 40 mg/kg per day): 683.33%
- Percent increase in Fibrosis with respect to the control group (lung tissue, Group 3, oral 80 mg/kg per day): 611.11%
- Percent increase in Fibrosis with respect to the control group (lung tissue, Group 4, oral 100 mg/kg per day): 516.67%
- Percent increase in Fibrosis with respect to the control group (lung tissue, Group 5, inhalation 0.05 mg/kg per day): 1,127.78%
- Percent increase in Fibrosis with respect to the control group (lung tissue, Group 6, inhalation 0.1 mg/kg per day): 433.33%
- Percent increase in Fibrosis with respect to the control group (lung tissue, Group 7, inhalation 0.2 mg/kg per day): 233.33%
- Percent increase in Fibrosis with respect to the control group (lung tissue, Group 8, inhalation 0.4 mg/kg per day): 161.11%
- Percent increase in Fibrosis with respect to the control group (nasal cavity tissue, Group 1, oral 10 mg/kg per day): 513.89%
- Percent increase in Fibrosis with respect to the control group (nasal cavity tissue, Group 2, oral 40 mg/kg per day): 375.00%
- Percent increase in Fibrosis with respect to the control group (nasal cavity tissue, Group 3, oral 80 mg/kg per day): 300.00%
- Percent increase in Fibrosis with respect to the control group (nasal cavity tissue, Group 4, oral 100 mg/kg per day): 300.00%
- Percent increase in Fibrosis with respect to the control group (nasal cavity tissue, Group 5, inhalation 0.05 mg/kg per day): 700.00%
- Percent increase in Fibrosis with respect to the control group (nasal cavity tissue, Group 6, inhalation 0.1 mg/kg per day): 319.44%
- Percent increase in Fibrosis with respect to the control group (nasal cavity tissue, Group 7, inhalation 0.2 mg/kg per day): 163.89%
- Percent increase in Fibrosis with respect to the control group (nasal cavity tissue, Group 8, inhalation 0.4 mg/kg per day): 147.22%
- Percent increase in Fibrosis with respect to the control group (pharyngeal tissue, Group 1, oral 10 mg/kg per day): 489.54%
- Percent increase in Fibrosis with respect to the control group (pharyngeal tissue, Group 2, oral 40 mg/kg per day): 457.45%
- Percent increase in Fibrosis with respect to the control group (pharyngeal tissue, Group 3, oral 80 mg/kg per day): 380.00%
- Percent increase in Fibrosis with respect to the control group (pharyngeal tissue, Group 4, oral 100 mg/kg per day): 275.00%
- Percent increase in Fibrosis with respect to the control group (pharyngeal tissue, Group 5, inhalation 0.05 mg/kg per day): 480.30%
- Percent increase in Fibrosis with respect to the control group (pharyngeal tissue, Group 6, inhalation 0.1 mg/kg per day): 258.34%
- Percent increase in Fibrosis with respect to the control group (pharyngeal tissue, Group 7, inhalation 0.2 mg/kg per day): 152.23%
- Percent increase in Fibrosis with respect to the control group (pharyngeal tissue, Group 8, inhalation 0.4 mg/kg per day): 128.32%

— patent US20170290774A1, “NEUROKININ-1 RECEPTOR ANTAGONIST COMPOSITION FOR TREATMENT OF DISEASES AND CONDITIONS OF THE RESPIRATORY TRACT” (PLUS VITECH, S.L., priority 2014, published 2017)
